Test results as given in PubChem BioAssay (NCI).
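Cultured in 96-well plates, cells were exposed to test compound for 48 hours across five concentrations. GI50 = concentration required for 50% inhibition of growth. TGI is the concentration that stops growth completely.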

Tests used:
Experiment in all cases: inhibition of tumour cell growth, NCI panel, 48 h
SNB-75 CNS = system: SNB-75 CNS
A498 renal = system: A498 renal
SF-295 CNS = system: SF-295 CNS
UACC-62 melanoma = system: UACC-62 melanoma
EKVX NSCLC = system: EKVX NSCLC
SN12C renal = system: SN12C renal
MOLT-4 leukemia = system: MOLT-4 leukemia
UACC-257 melanoma = system: UACC-257 melanoma
HCT-116 colon = system: HCT-116 colon
OVCAR-8 ovarian = system: OVCAR-8 ovarian
KM12 colon = system: KM12 colon
ACHN renal = system: ACHN renal
HCT-15 colon = system: HCT-15 colon
MDA-MB-231 breast = system: MDA-MB-231 breast
HOP-92 NSCLC = system: HOP-92 NSCLC
SK-MEL-28 melanoma = system: SK-MEL-28 melanoma
SK-MEL-2 melanoma = system: SK-MEL-2 melanoma
LOX IMVI melanoma = system: LOX IMVI melanoma
NCI/ADR-RES ovarian = system: NCI/ADR-RES ovarian
HL-60(TB) leukemia = system: HL-60(TB) leukemia
MALME-3M melanoma = system: MALME-3M melanoma
HT29 colon = system: HT29 colon
DU-145 prostate = system: DU-145 prostate
SF-539 CNS = system: SF-539 CNS
NCI-H460 lung = system: NCI-H460 lung
CAKI-1 renal = system: CAKI-1 renal
SW-620 colon = system: SW-620 colon
SK-OV-3 ovarian = system: SK-OV-3 ovarian

## Cc1ccccc1N1CCN(C2=C(Cl)C(=O)c3ncccc3C2=O)CC1
SNB-75 CNS
  GI50: 17.4 µM
  TGI: > 100 µM
A498 renal
  GI50: > 100 µM
  TGI: > 100 µM
SF-295 CNS
  GI50: 14.7 µM
  TGI: > 100 µM
UACC-62 melanoma
  GI50: 3.92 µM
  TGI: 42.2 µM
EKVX NSCLC
  GI50: 1.68 µM
  TGI: 3.1 µM
SN12C renal
  GI50: 3.56 µM
  TGI: 78.9 µM
MOLT-4 leukemia
  GI50: 1.78 µM
  TGI: 4.95 µM
UACC-257 melanoma
  GI50: 1.98 µM
  TGI: 4.25 µM
HCT-116 colon
  GI50: 1.56 µM
  TGI: 2.89 µM
OVCAR-8 ovarian
  GI50: 1.91 µM
  TGI: 4.35 µM
KM12 colon
  GI50: 48.1 µM
  TGI: > 100 µM
ACHN renal
  GI50: 1.85 µM
  TGI: 3.89 µM
HCT-15 colon
  GI50: 1.69 µM
  TGI: 4.52 µM
MDA-MB-231 breast
  GI50: 1.71 µM
  TGI: 3.27 µM
HOP-92 NSCLC
  GI50: 1.36 µM
  TGI: 2.7 µM
SK-MEL-28 melanoma
  GI50: 2.19 µM
  TGI: 5.06 µM
SK-MEL-2 melanoma
  GI50: 2.75 µM
  TGI: 14.8 µM
LOX IMVI melanoma
  GI50: 1.65 µM
  TGI: 3.21 µM
NCI/ADR-RES ovarian
  GI50: 2.51 µM
  TGI: 7.18 µM
HL-60(TB) leukemia
  GI50: 1.61 µM
  TGI: 4.05 µM
MALME-3M melanoma
  GI50: 2.03 µM
  TGI: 4.64 µM
HT29 colon
  GI50: 5.33 µM
  TGI: > 100 µM
DU-145 prostate
  GI50: 3.8 µM
  TGI: > 100 µM
SF-539 CNS
  GI50: 1.8 µM
  TGI: 3.32 µM
NCI-H460 lung
  GI50: 6.68 µM
  TGI: 46.5 µM
CAKI-1 renal
  GI50: 2.78 µM
  TGI: > 100 µM
SW-620 colon
  GI50: 1.48 µM
  TGI: 3.45 µM
SK-OV-3 ovarian
  GI50: 37.2 µM
